Legend:
IGS4B = target: T1, IGS4B (Homo sapiens, UniProt Q9GZQ4, A395T/F315L/M388V/P383L/S298T); experiment: FLIPR intracellular calcium mobilisation in CHOGα16-IGS4 cells (IGS4B); type: cell-based; conditions: for maximal activation of IGS4B: comparison among the three neuromedin U isoforms; for IGS4-mediated calcium mobilisation in the FLIPR assay: range 10^−6–10^−12 M, IGS4B
T1 construct: expressed in transfected cells; host or cells: CHOGα16 (CHO cells stably expressing Gα16, Molecular Devices), transfected with IGS4-pcDNA3.1
Procedure: (§1) A. Method and Materials for IGS-4 Transfected CHOGα16IGS4 cells.
(§2) The following materials were used in the experiments: Vector containing IGS4-DNA sequence (IGS4-pcDNA3.1); SuperFect Transfection Reagent (Qiagen): Nut-Mix F12 (Gibco) with 10% FCS, 0.028 mg/ml Gentamycin (Gibco); 0.22 mg/ml Hygromycin (Gibco).
(§3) Materials used for clone selection: Nut-Mix F12 with 10% FCS; 0.028 mg/ml Gentamycin; 0.22 mg/ml Hygromycin and 0.55 mg/ml Geneticin (Gibco).
(§4) The following method was applied: Transfection with SuperFect Transfection Reagent was carried out as described by the manufacturer (Qiagen). Cells were plated in 24-well plates to 50% confluence. Per well […] plasmid-DNA with 1 μl SuperFect Transfection Reagent was added. After 24 hours the medium was changed and transfected cell clones were selected by Geneticin-containing selection-medium. IGS4 expressing cell clones were characterized by RT-PCR and Northern Blot.
B. Method and Materials for FLIPR-Assay.
The method was performed as follows: Cells were seeded 24 hours or 48 hours prior to the experiment into black wall microplates. The cell density was […] cells/well for 48 hour incubation and […] cells/well for 24 hour incubation. All steps were done under sterile conditions.
In order to observe changes in intracellular calcium levels, cells must be ‘loaded’ with a calcium-sensitive fluorescent dye. This dye, called FLUO-4 (Molecular Probes) is excited at 488 nm, and emits light in the 500–560 nm range, only if a complex with calcium is formed. The dye was used at 4 μM final concentration. Pluronic acid was added to increase dye solubility and dye uptake into the cells. Probenicid, an anion exchange protein inhibitor, was added to the dye medium to increase dye retention in the cells.
The method was worked as follows: The 2 mM stock of dye was mixed with an equal volume of 20% (w/v) pluronic acid immediately before adding to the loading-Buffer. The growth-medium was aspirated out of the well without disturbing the confluent cell layer. 100 μl loading medium was dispensed into each well using a Multidrop (Labsystems). Cell were incubated in a 5% CO2, 37° C. incubator for 30 minutes. In order to calculate the, background fluorescence, some wells were not dye loaded. The background fluorescence in these wells results from autofluorescence of the cells. After dye loading, cell were washed three times with Wash-Buffer (automated Denley cell washer) to reduce the basal fluorescence to 20.000–25.000 counts above background. 100 l buffer was added and cell were incubated at 37° C. till start of the experiment. […]
The resulting CHOGα16-IGS4 cells were functionally screened on a Fluorometric Imaging Plate Reader (FLIPR) to measure mobilisation of intracellular calcium in response to putative peptide ligands. […]

IGS4A = target: T2, IGS4A (Homo sapiens, UniProt Q9GZQ4, A395T); experiment: FLIPR intracellular calcium mobilisation in CHOGα16-IGS4 cells (IGS4A); type: cell-based; conditions: range 10^−6–10^−12 M
T2 construct: expressed in transfected cells; host or cells: CHOGα16 (CHO cells stably expressing Gα16, Molecular Devices), transfected with IGS4-pcDNA3.1
Procedure: as §1, §2, §3
as §4, with “IGS4 expressing cell clones were characterized by RT-PCR and Northern Blot.” left out
The method was worked as follows: The 2 mM stock of dye was mixed with an equal volume of 20% (w/v) pluronic acid immediately before adding to the loading-Buffer. […] In order to calculate the, background fluorescence, some wells were not dye loaded. The background fluorescence in these wells results from autofluorescence of the cells. After dye loading, cell were washed three times with Wash-Buffer (automated Denley cell washer) to reduce the basal fluorescence to 20.000–25.000 counts above background. […]

IGS4 = experiment: Basal intracellular cAMP in CHOGα16-IGS4 cells; type: cell-based, human; conditions: 1 and 10 μM; data not shown

T1 sequence (Q9GZQ4 whole entry S298T/F315L/P383L/M388V/A395T, canonical isoform): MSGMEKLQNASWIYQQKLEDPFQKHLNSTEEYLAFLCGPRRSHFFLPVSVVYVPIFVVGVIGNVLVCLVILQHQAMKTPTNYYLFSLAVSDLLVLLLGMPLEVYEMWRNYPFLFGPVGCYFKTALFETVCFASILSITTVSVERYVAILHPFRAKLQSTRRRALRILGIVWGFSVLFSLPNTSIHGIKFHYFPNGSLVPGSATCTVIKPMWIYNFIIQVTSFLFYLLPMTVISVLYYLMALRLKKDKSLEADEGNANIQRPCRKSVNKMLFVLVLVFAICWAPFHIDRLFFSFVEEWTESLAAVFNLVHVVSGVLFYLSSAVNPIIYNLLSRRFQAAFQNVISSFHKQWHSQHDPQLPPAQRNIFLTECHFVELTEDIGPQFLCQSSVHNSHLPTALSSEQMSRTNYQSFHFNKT
T2 sequence (Q9GZQ4 whole entry A395T): as the sequence (Q9GZQ4 whole entry S298T/F315L/P383L/M388V/A395T, canonical isoform) above, with T298S, L315F, L383P, V388M counted along it

Q: For neuromedin U-25, which “maximal activation of IGS4B” value (IGS4B) is on record?
A: same maximal activation

Q: What about the “IGS4-mediated calcium mobilisation in the FLIPR assay” value (IGS4B) of the same substance?
A: induced specific IGS4-mediated calcium mobilisation

Q: And the “IGS4-mediated calcium mobilisation in the FLIPR assay” value (IGS4A)?
A: induced specific IGS4-mediated calcium mobilisation

Q: What does the source list for neuromedin U-8?
A: maximal activation of IGS4B (IGS4B): same maximal activation; IGS4-mediated calcium mobilisation in the FLIPR assay (IGS4B): induced specific IGS4-mediated calcium mobilisation; IGS4-mediated calcium mobilisation in the FLIPR assay (IGS4A): induced specific IGS4-mediated calcium mobilisation; basal levels of intracellular cAMP (IGS4): not modulated
